Peptide text beside a SMILES is read from it.
Assays:
Format in all cases: cell-based
[1] = system: Escherichia coli BL21 (DE3); settings: BL21, 18 h
Description: (§1) The bioactivity of the intestinal peptide extracts was determined via the microdilution method. Antimicrobial activity was screened with E. coli and S. aureus as representatives of common infant pathogens responsible for infectious disease, and growth-promoting activity was screened with B. infantis, one of the ideal colonizers of the infant gut. For the antimicrobial assays, colonies of bacteria were selected and inoculated in 2 mL of MHB and incubated at 37 °C for 24 h. The inoculum was diluted to 2 × 10^5 CFU/mL with MHB. For the growth-promoting assays, 100 µL of stock bacteria were inoculated in 10 mL of reinforced clostridial broth supplemented with 0.1% ascorbic acid and incubated under anaerobic conditions (BD BBL™ GasPak™) at 37 °C for 24 h. Optical density was measured at 600 nm, and the inoculum was diluted to an optical density of 0.05 with reinforced clostridial broth.
(§2) The intestinal peptide extracts were serially diluted with PBS to concentrations of 1×, 1/2×, 1/4×, 1/8×, 1/16×, 1/32×, 1/64×, and 1/128×. In a 96-well plate, 50 µL of each dilution was incubated with 50 µL of inoculum in duplicate, along with a negative control of 50 µL of inoculum with 50 µL of pure PBS and a sterility test of 50 µL of peptide with 50 µL of broth. Growth was determined by optical density readings at 600 nm (OD600) taken at 0 h (T0) and 18 h (T18). The following equation was used to determine percent inhibition or promotion of bacterial growth:
(§3) Candidate peptides were synthesized and dissolved in sterile nanopure water. Antimicrobial and growth-promoting assays were carried out as described above with serial dilutions ranging from […] to 15.6 μg/mL. Minimum inhibitory concentration (MIC) was determined by the concentration at which all visible growth was inhibited.

[2] = system: Bifidobacterium longum spp. infantis ATCC 15697; settings: ATCC 15697, 18 h
Description: as §1, §2, §3

[3] = system: Staphylococcus aureus ATCC 12600; settings: ATCC 12600, 18 h
Description: as §1, §2, §3

CC[C@H](C)[C@H](NC(=O)[C@@H]1CCCN1C(=O)[C@H](CC(N)=O)NC(=O)[C@H](Cc1c[nH]cn1)NC(=O)[C@@H](NC(=O)[C@@H]1CCCN1C(=O)[C@H](C)NC(=O)[C@@H](N)CC(C)C)C(C)C)C(=O)O [Peptide 4] (H-LAPVHNPI-OH)
E. coli MIC [1]: 3000 µg/mL
B. infantis MIC [2]: >3000 µg/mL
S. aureus MIC [3]: 3000 µg/mL

CSCC[C@H](NC(=O)[C@@H](N)CC(=O)O)C(=O)N[C@@H](CC(C)C)C(=O)N[C@H](C(=O)N[C@H](C(=O)N[C@@H](CC(=O)O)C(=O)N1CCC[C@H]1C(=O)N[C@@H](CCCCN)C(=O)O)C(C)C)C(C)C [Peptide 9] (H-DMLVVDPK-OH; N-terminus and C-terminus assumed)
E. coli MIC [1]: 3000 µg/mL
B. infantis MIC [2]: >3000 µg/mL
S. aureus MIC [3]: 3000 µg/mL
